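Five compound concentrations were applied to cells in 96-well plates for 48 hours; endpoints were derived by simple linear interpolation of the resulting dose-response curve. GI50 = concentration required for 50% inhibition of growth.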 Calls of active or inactive are those of the source. Cut-off read from the data, not from the text of the source: active = GI50 up to about 1.1 µM and inactive = higher.
Legend:
Experiment in all cases: growth of human tumour cells (NCI), 48 h
[1] = system: MDA-N
[2] = system: OVCAR-5
[3] = system: EKVX
[4] = system: HOP-62
[5] = system: MOLT-4
[6] = system: SW-620
[7] = system: UACC-62
[8] = system: NCI-H23
[9] = system: DU-145
[10] = system: OVCAR-3
[11] = system: HOP-92
[12] = system: SF-295
[13] = system: HCT-116
[14] = system: SK-MEL-28
[15] = system: K562
[16] = system: SNB-75
[17] = system: OVCAR-8
[18] = system: CCRF-CEM
[19] = system: NCI-H226

Measured: GI50

COC(=O)c1c(CC(Cc2ccc3c(c2)CCCC3)C(=O)OC)ccc2c1CCCC2 (stereo not given)
inactive: [1] 77.1 µM | [2] > 100 µM | [3] 19.5 µM | [4] > 100 µM | [5] 27.2 µM | [6] > 100 µM | [7] > 100 µM | [8] 69.5 µM | [9] > 100 µM | [10] > 100 µM | [11] 23 µM | [12] > 100 µM | [13] 72.8 µM | [14] > 100 µM | [15] 32.9 µM | [16] > 10 µM | [17] > 100 µM | [18] 35.4 µM

O=C(/C=C(\N=P(c1ccccc1)(c1ccccc1)c1ccccc1)C(F)(F)C(F)(F)C(F)(F)C(F)(F)C(F)(F)C(F)(F)C(F)(F)F)c1ccccc1
inactive: [1] > 100 µM | [2] > 100 µM | [4] > 100 µM | [5] > 100 µM | [6] > 100 µM | [7] > 100 µM | [8] > 100 µM | [9] > 100 µM | [10] > 100 µM | [11] > 100 µM | [12] > 100 µM | [13] > 100 µM | [14] > 100 µM | [15] > 100 µM | [16] > 100 µM | [18] > 100 µM

O=c1[nH]c2nccn2c2c1SCCN2
inactive: [1] > 100 µM | [2] > 100 µM | [3] > 100 µM | [4] > 100 µM | [5] > 100 µM | [6] > 100 µM | [7] > 100 µM | [8] > 100 µM | [9] > 100 µM | [19] > 100 µM | [10] > 100 µM | [12] > 100 µM | [13] > 100 µM | [14] > 100 µM | [15] > 100 µM | [16] > 100 µM | [17] > 100 µM | [18] > 100 µM

O=Nc1c(-c2c(O)[nH]c3ccccc23)[nH]c2ccccc12 [INDIRUBIN-3-MONOXIME]
inactive: [1] 4.58 µM | [2] 7.26 µM | [3] 1.9 µM | [4] 7.23 µM | [5] 4.15 µM | [6] 4.79 µM | [7] 2.93 µM | [8] 7.83 µM | [9] 2.63 µM | [10] 3.88 µM | [11] 8.77 µM | [12] 10.1 µM | [13] 2.52 µM | [14] 6.9 µM | [15] 2.67 µM | [16] 3.88 µM | [17] 4.45 µM | [18] 4.4 µM

CC1(O)C(=O)OC2CC([C@]3(O)CCC4[C@@H]5C[C@H]6O[C@]67[C@@H](O)C=CC(=O)[C@]7(C)C5CC[C@@]43C)C1(C)C2 (stereo not given in full)
inactive: [1] 12.3 µM | [2] 23.8 µM | [3] 45 µM | [4] 52.7 µM | [5] 2.89 µM | [6] 3.07 µM | [7] 14.9 µM | [8] 7.13 µM | [9] 26.5 µM | [10] 15.8 µM | [11] 3.44 µM | [12] 34.6 µM | [13] 10.9 µM | [14] 9.35 µM | [15] 3.6 µM | [16] 29.8 µM | [17] 25.1 µM | [18] 2.03 µM

O=C(c1cccs1)N(C(=S)OCCOc1ccccc1)c1ccccc1
inactive: [1] 17.2 µM | [2] 28.4 µM | [3] 29.5 µM | [4] 28.2 µM | [5] 27.4 µM | [6] 25.5 µM | [7] 18.2 µM | [8] 20.7 µM | [9] 28.6 µM | [10] 21 µM | [11] 18.8 µM | [12] 26.5 µM | [13] 19.4 µM | [14] 24.8 µM | [15] 36.1 µM | [16] 24.3 µM | [17] 25.5 µM | [18] 27.6 µM

CC(O[Si](c1ccccc1)(c1ccccc1)C(C)(C)C)[C@H](NC(=O)OC(C)(C)C)C(=O)O[Si](c1ccccc1)(c1ccccc1)C(C)(C)C (stereo not given in full)
inactive: [1] 18.8 µM | [2] 15.9 µM | [3] 11.9 µM | [4] 18.2 µM | [5] 10.6 µM | [6] 16.1 µM | [8] 11.7 µM | [9] 12.6 µM | [11] 10.9 µM | [12] 8.04 µM | [13] 11.2 µM | [14] 14.3 µM | [15] 13.2 µM | [16] 15.4 µM | [17] 15.6 µM | [18] 20 µM

O=C(O)c1ccccc1/C=C1\Cc2ccccc2C1=O
inactive: [1] > 100 µM | [2] > 100 µM | [3] > 100 µM | [4] > 100 µM | [5] > 100 µM | [6] > 100 µM | [7] > 100 µM | [8] > 100 µM | [9] > 100 µM | [19] > 100 µM | [10] > 100 µM | [12] > 100 µM | [13] > 100 µM | [14] > 100 µM | [15] > 100 µM | [16] > 100 µM | [17] > 100 µM | [18] > 100 µM

Source: ChEMBL document CHEMBL1201862, “PubChem BioAssay data set” (2004)
